Test results published in US20090041876A1, “OIL/FAT-CONTAINING COMPOSITION FOR SUPPRESSION OF CARCINOGENESIS” (KANEKA CORPORATION, priority 2005, published 2009).
Where a name gives a salt, the structure may show the parent alone. Marks after values point to notes of the source that are not given here.

Experiments:
GST-P-positive cell foci = test: liver medium-term bioassay (Ito test): quantitative analysis of GST-P-positive cell foci in rat liver; type: in vivo
Procedure: In order to examine the effect of the MCT solution of Example 1 on carcinogenesis, a search using a liver medium-term bioassay (Ito test) was performed. This test method is one of the two-step carcinogenesis models using rodents and is employed for rat liver. This test method has been used to search for 313 or more chemical substances, and is considered to be a reliable and useful method of searching for carcinogens or carcinogenesis-suppressing substances. Therefore, this test is accepted as an alternative to a conventional long-term carcinogenicity test in the Japan/US/EU Trilateral International Conference on Harmonization of Technical Requirements for Registration of Pharmaceuticals for Human Use (ICH). […]
(§1) After a lapse of the third week of the experiment (one week after the start of test substance administration), partial hepatectomy was performed for all the animals, and lesions in the livers were amplified. […] The areas of the liver sections and the numbers and areas of GST-P-positive cell foci with diameters of 0.2 mm or more were measured using a pathological specimen image analyzer IPAP-WIN (Sumika Technoservice Corporation), and then the areas and numbers per cm^2 of the liver sections were calculated to perform a quantitative analysis. […]

[1] = liver medium-term bioassay (Ito test): liver weights, general status, light and electron microscopical examination of livers; type: in vivo, rat; settings: F344 male rats, DEN +, 500 ppm with feed (positive control)
Procedure: Diethylnitrosamine (DEN) was administered intraperitoneally to the rats once at a dose of 200 mg/kg for the purpose of an initiation treatment for liver carcinogenesis, and from two weeks after the administration, a test substance, i.e., the MCT solution was forcibly administered orally at doses of 0 (control group), 150, 300, and 600 mg/kg once a day seven times/week for six weeks (Groups 1 to 4). The doses of the MCT solution used in this test (150, 300, and 600 mg/kg) correspond to 45, 90, and 180 mg/kg body weight in terms of a licorice extract serving as an effective ingredient. In addition, phenobarbital sodium salt (S. PB) was administered with a feed to a positive control group at a concentration of 500 ppm (Group 5). […]
as §1

CCC1(c2ccccc2)C(=O)NC(=O)NC1=O [Phenobarbital Sodium, phenobarbital sodium salt]
number and area per unit area of GST-P-positive cell foci versus control (GST-P-positive cell foci; Group 5, DEN +, 500 ppm with feed): evidently high levels
GST-P-positive cell foci, Area (GST-P-positive cell foci; rat liver, DEN +, 500 ppm with feed (positive control)): 0.541 ± 0.160** mm^2/cm^2
Liver weight, Absolute weight [1]: 9.2781 ± 0.4913 g
Liver weight, Relative weight [1]: 3.3527 ± 0.1032 %
